Results as given in patent US5395947A, “Platinum(II) complex and processes for preparing the same” (Sunkyong Industries, Ltd., priority 1991, dated 1995).

What was measured:
[1] = test system: murine leukemia L1210 cells; experiment: Growth inhibition test on cultured murine leukemia L1210 cells; format: cell-based; conditions: 48 hours, 37° C., Trypan blue viability
Description: 1. Growth inhibition test on cultured murine leukemia L1210 cells
Murine leukemia L1210 cells(1×10^5) were treated with various concentrations of the compounds prepared in the above examples in RPMI 1640 medium supplemented with 10% fetal calf serum, and cultured in a 5% CO2 humidified incubator at 37° C. for 48 hours. Their viability, estimated by staining with 0.17% Trypan blue, was compared with that of control cells cultured in the identical medium without the compounds.

murine leukemia L1210 = experiment: Antitumor activity test on murine leukemia L1210 in vivo; set-up: species or system male BDF1 mice; conditions: days 1, 5, 9
Description: 2. Antitumor activity test on murine leukemia L1210 in vivo
Murine leukemia L1210 cells were maintained in the peritoneal cavities of 6-week-old male DBA/2 mice by weekly transfer in accordance with the procedure described in cancer chemotherapy Reports, Part 3, 3(2), 7 (1972). Specifically, 1×10^6 leukemia cells were inoculated into the abdominal cavities of 6-week-old male BDF1 mice weighing 21±3 g on day 0. Each treatment group consisted of seven mice. The test compounds were dissolved or suspended in 0.5% carboxymethyl cellulose(CMC)solution (in water) and were administered intraperitoneally on days 1, 5, and 9 relative to the tumor inoculation.
Thirty mice of 6-week-old male BDF1 weighing 21±3 g were used as the control group, which were injected with 0.5% CMC solution only in the same manner as above.
Anti-tumor activities of the compounds were evaluated in terms of the T/C % values calculated from the mean survival time(T) of the compound-treated group over that(C) of the control group. [formula]

ICR mice = experiment: Acute toxicity test; format: in vivo; set-up: Lethality: unit not given here; conditions: for Lethality: 10080 min
Description: 7-week-old ICR mice(male: 34±2 g; female: 31±2 g) were fed with solid food and water under the condition of 23±1° C. temperature and 65±5% humidity before the test.
Each treatment group consisted of 6 mice. The test compounds were administered intraperitoneally.
For 7 days after the administration, the appearance and the fate of the tested animals were recorded. The dead animals were subjected to autopsy and their visible pathological changes were observed. Their viscerals were stored in 10% formalin solution.

[2] = Test for water solubility; format: physicochemical; conditions: 20° C.
Excerpt: 3. Test for water solubility
A standard plot of UV absorbance(220 nm) vs. concentration was made; and employed to determine water-solubility.
The mixture was then passed through a 0.45 micron disposable membrane filter before dilution and UV measurement.

SMILES: CC1(C)C(=O)[O][Pt-2]2([NH2+]CC3OC4(CCCC4)OC3C[NH2+]2)[O]C1=O [Example 42, cis-dimethylmalonato[(4R,5R)-4,5-bis(aminomethyl)-1,3-dioxolane-2-spiro-1'-cyclopentane]platinum(II)]
- IC50 (concentration required for 50% inhibition of growth) [1]: 0.54 µg/mL
- T/C (%) (murine leukemia L1210; 25 mg/kg i.p.): 172%
- T/C (%) (murine leukemia L1210; 50 mg/kg i.p.): 160%
- T/C (%) (murine leukemia L1210; 100 mg/kg i.p.): 150%

SMILES: CC1(C)OC2C[NH2+][Pt-2]3([NH2+]CC2O1)[O]C(=O)CC(=O)[O]3 [Example 36, cis-malonato[(4R,5R)-4,5-bis(aminomethyl)-2,2-dimethyl-1,3-dioxolane]platinum(II)]
- IC50 (concentration required for 50% inhibition of growth) [1]: 0.76 µg/mL
- T/C (%) (murine leukemia L1210; 12.5 mg/kg i.p.): 133%
- T/C (%) (murine leukemia L1210; 25 mg/kg i.p.): 179%
- T/C (%) (murine leukemia L1210; 50 mg/kg i.p.): 190%

SMILES: CC1[O][Pt][O]C1=O.CCC1OC(CN)C(CN)O1 [Example 18, (L-lactato-O,O')[(4R,5R)-4,5-bis(aminomethyl)-2-ethyl-1,3-dioxolane]platinum(II)]
- IC50 (concentration required for 50% inhibition of growth) [1]: 0.32 µg/mL
- Number of dead mice for 7 days (ICR mice; female, 41.3 mg/kg i.p.): 3/6
- Number of dead mice, 1st day (ICR mice; female, 41.3 mg/kg i.p.): 0/6
- Number of dead mice, 5th day (ICR mice; female, 41.3 mg/kg i.p.): 1/6
- Number of dead mice, 6th day (ICR mice; female, 41.3 mg/kg i.p.): 2/5
- Lethality (ICR mice; female, 41.3 mg/kg i.p.): 55.0
- Number of dead mice for 7 days (ICR mice; female, 54.9 mg/kg i.p.): 4/6
- Number of dead mice, 1st day (ICR mice; female, 54.9 mg/kg i.p.): 0/6
- Number of dead mice, 3rd day (ICR mice; female, 54.9 mg/kg i.p.): 1/6
- Number of dead mice, 4th day (ICR mice; female, 54.9 mg/kg i.p.): 2/5
- Number of dead mice, 5th day (ICR mice; female, 54.9 mg/kg i.p.): 1/3
- Lethality (ICR mice; female, 54.9 mg/kg i.p.): 66.7
- Number of dead mice for 7 days (ICR mice; female, 71.4 mg/kg i.p.): 5/6
- Number of dead mice, 1st day (ICR mice; female, 71.4 mg/kg i.p.): 0/6
- Number of dead mice, 4th day (ICR mice; female, 71.4 mg/kg i.p.): 1/6
- Number of dead mice, 5th day (ICR mice; female, 71.4 mg/kg i.p.): 3/5
- Number of dead mice, 6th day (ICR mice; female, 71.4 mg/kg i.p.): 1/2
- Lethality (ICR mice; female, 71.4 mg/kg i.p.): 83.3
- Number of dead mice for 7 days (ICR mice; female, 91.8 mg/kg i.p.): 6/6
- Number of dead mice, 1st day (ICR mice; female, 91.8 mg/kg i.p.): 1/6
- Number of dead mice, 2nd day (ICR mice; female, 91.8 mg/kg i.p.): 1/6
- Number of dead mice, 3rd day (ICR mice; female, 91.8 mg/kg i.p.): 2/5
- Number of dead mice, 4th day (ICR mice; female, 91.8 mg/kg i.p.): 2/3
- Number of dead mice, 5th day (ICR mice; female, 91.8 mg/kg i.p.): 1/1
- Lethality (ICR mice; female, 91.8 mg/kg i.p.): 100.0
- Number of dead mice for 7 days (ICR mice; male, 41.3 mg/kg i.p.): 4/6
- Number of dead mice, 1st day (ICR mice; male, 41.3 mg/kg i.p.): 0/6
- Number of dead mice, 4th day (ICR mice; male, 41.3 mg/kg i.p.): 1/6
- Number of dead mice, 5th day (ICR mice; male, 41.3 mg/kg i.p.): 1/5
- Number of dead mice, 6th day (ICR mice; male, 41.3 mg/kg i.p.): 2/4
- Lethality (ICR mice; male, 41.3 mg/kg i.p.): 66.7
- Number of dead mice for 7 days (ICR mice; male, 54.9 mg/kg i.p.): 4/6
- Number of dead mice, 1st day (ICR mice; male, 54.9 mg/kg i.p.): 0/6
- Number of dead mice, 2nd day (ICR mice; male, 54.9 mg/kg i.p.): 1/6
- Number of dead mice, 3rd day (ICR mice; male, 54.9 mg/kg i.p.): 1/5
- Number of dead mice, 4th day (ICR mice; male, 54.9 mg/kg i.p.): 1/4
- Number of dead mice, 5th day (ICR mice; male, 54.9 mg/kg i.p.): 1/3
- Lethality (ICR mice; male, 54.9 mg/kg i.p.): 66.7
- Number of dead mice for 7 days (ICR mice; male, 71.4 mg/kg i.p.): 5/6
- Number of dead mice, 1st day (ICR mice; male, 71.4 mg/kg i.p.): 0/6
- Number of dead mice, 4th day (ICR mice; male, 71.4 mg/kg i.p.): 2/6
- Number of dead mice, 5th day (ICR mice; male, 71.4 mg/kg i.p.): 2/4
- Number of dead mice, 6th day (ICR mice; male, 71.4 mg/kg i.p.): 1/2
- Lethality (ICR mice; male, 71.4 mg/kg i.p.): 83.3
- Number of dead mice for 7 days (ICR mice; male, 91.8 mg/kg i.p.): 6/6
- Number of dead mice, 1st day (ICR mice; male, 91.8 mg/kg i.p.): 0/6
- Number of dead mice, 2nd day (ICR mice; male, 91.8 mg/kg i.p.): 3/6
- Number of dead mice, 4th day (ICR mice; male, 91.8 mg/kg i.p.): 1/3
- Number of dead mice, 5th day (ICR mice; male, 91.8 mg/kg i.p.): 1/2
- Number of dead mice, 6th day (ICR mice; male, 91.8 mg/kg i.p.): 1/1
- Lethality (ICR mice; male, 91.8 mg/kg i.p.): 100.0
- T/C (%) (murine leukemia L1210; 12.5 mg/kg i.p.): 206%
- T/C (%) (murine leukemia L1210; 25 mg/kg i.p.): 165%
- T/C (%) (murine leukemia L1210; 50 mg/kg i.p.): toxic

SMILES: CCC1OC2C[NH2+][Pt-2]3([NH2+]CC2O1)[O]C(=O)C1(CCC1)C(=O)[O]3 [Example 25, cis-cyclobutane-1,1-dicarboxylato[(4S,5S)-4,5-bis(aminomethyl)-2-ethyl-1,3-dioxolane]platinum(II)]
- IC50 (concentration required for 50% inhibition of growth) [1]: 1.02 µg/mL
- Solubility in water [2]: 11.8 mg/mL

SMILES: CC1(C)OC(CN)C(CN)O1.CC1[O][Pt][O]C1=O [Example 14, (L-lactato-O,O')[(4R,5R)-4,5-bis(aminomethyl)-2,2-dimethyl-1,3-dioxolane]platinum(II)]
- IC50 (concentration required for 50% inhibition of growth) [1]: 0.46 µg/mL
- T/C (%) (murine leukemia L1210; 12.5 mg/kg i.p.): 213%
- T/C (%) (murine leukemia L1210; 25 mg/kg i.p.): toxic
- T/C (%) (murine leukemia L1210; 50 mg/kg i.p.): toxic

SMILES: CC(C)C1OC2C[NH2+][Pt-2]3([NH2+]CC2O1)[O]C(=O)C(C)(C)C(=O)[O]3 [Example 41, cis-dimethylmalonato[(4R,5R)-4,5-bis(aminomethyl)-2-isopropyl-1,3-dioxolane]platinum(II)]
- IC50 (concentration required for 50% inhibition of growth) [1]: 0.44 µg/mL
- T/C (%) (murine leukemia L1210; 25 mg/kg i.p.): 123%
- T/C (%) (murine leukemia L1210; 50 mg/kg i.p.): 174%
- T/C (%) (murine leukemia L1210; 100 mg/kg i.p.): 204%

SMILES: CC1OC2C[NH2+][Pt-2]3([NH2+]CC2O1)[O]C(=O)CC(=O)[O]3 [Example 34, cis-malonato[(4R,5R)-4,5-bis(aminomethyl)-2-methyl-1,3-dioxolane]platinum(II)]
- IC50 (concentration required for 50% inhibition of growth) [1]: 0.60 µg/mL
- T/C (%) (murine leukemia L1210; 12.5 mg/kg i.p.): 140%
- T/C (%) (murine leukemia L1210; 25 mg/kg i.p.): 156%
- T/C (%) (murine leukemia L1210; 50 mg/kg i.p.): 241%

SMILES: O=C1CC(=O)[O][Pt-2]2([NH2+]CC3OCOC3C[NH2+]2)[O]1 [Example 33, cis-malonato[(4R,5R)-4,5-bis(aminomethyl)-1,3-dioxolane]platinum(II)]
- IC50 (concentration required for 50% inhibition of growth) [1]: 0.50 µg/mL
- T/C (%) (murine leukemia L1210; 12.5 mg/kg i.p.): 146%
- T/C (%) (murine leukemia L1210; 25 mg/kg i.p.): 133%
- T/C (%) (murine leukemia L1210; 50 mg/kg i.p.): 276%
